Data published in patent US20210084904A1, “SUCCINATE DEHYDROGENASE INHIBITORS AND SULFUR-CONTAINING COMPOUNDS MIXTURES AND METHODS OF USE THEREOF” (University of Georgia Research Foundation, Inc., priority 2019, published 2021).

Tested on: Cercosporidium personatum
Assay: Greenhouse test: efficacy on peanut late leaf spot, foliar spray
Type: in vivo
Conditions: leaves sprayed, infected peanut plants
Description: The following greenhouse test was conducted Sep. 14, 2019. Peanut plants (Arachis hypogaea) were used in the test as the crop plant. The peanut plants were infected Cercosporidium personatum.
Leaves were sprayed with inpyfluxam, chlorothalonil, benzovindiflupyr, prothioconazole, and/or sulfur at the rates disclosed in Table 1. All data was analyzed for significance.

N#Cc1c(Cl)c(Cl)c(Cl)c(C#N)c1Cl [Chlorothalonil, chlorothalonil]
% Control (application rate 24.0 ounces/acre): 27.5c %

OC(Cc1ccccc1Cl)(Cn1nc[nH]c1=S)C1(Cl)CC1 (centres unmarked) [Prothioconazole, prothioconazole]
% Control (application rate 7.0 ounces/acre): 10.0d %

inpyrfluxam
% Control (application rate 2.0 ounces/acre): 32.5b %
% Control (application rate 3.0 ounces/acre): 31.3bc %
% Control (application rate 4.0 ounces/acre): 30.0bc %
